Molecular target: recombinantly expressed human PARP-1 enzyme (Homo sapiens, UniProt P09874)
Assay: PARP enzyme assay (half-maximum inhibitor concentration)
Assay type: biochemical
Details: DNA-activated PARP-1, 200 μM NAD, tritium-labeled NAD incorporation, room temperature, 1 hour, pH 8.0
Description: Pharmacological Investigations PARP Enzyme Assay
The half-maximum inhibitor concentration is determined by incubating the substances to be tested with the DNA-activated, recombinantly expressed and purified PARP-1 enzyme. Specifically, various concentrations of the test substance are incubated in 50 μl of reaction solution, which contains 50 mM Tris, 5 mM MgCl2, 1 mM DTT, 200 μM NAD, 0.1 mCi/ml tritium-labeled NAD, 0.1 mg/ml DNA, 0.1 mg/ml histones, 2 μg/ml recombinantly expressed human PARP-1 enzyme, pH=8.0, at room temperature for 1 hour. The reaction is stopped by adding 150 μl of 20% trichloroacetic acid, and the radiolabeled protein constituents are precipitated. After incubation on ice for 10 minutes, the labeled, insoluble constituents are separated off through a glass fiber filter and, after washing with 20% trichloroacetic acid three times, the radioactivity incorporated by the PARP-1 enzyme is measured by radioluminescence.
IC-50 values were determined in this way for the following compounds: […]

Sequence of recombinantly expressed human PARP-1 enzyme (P09874 whole entry): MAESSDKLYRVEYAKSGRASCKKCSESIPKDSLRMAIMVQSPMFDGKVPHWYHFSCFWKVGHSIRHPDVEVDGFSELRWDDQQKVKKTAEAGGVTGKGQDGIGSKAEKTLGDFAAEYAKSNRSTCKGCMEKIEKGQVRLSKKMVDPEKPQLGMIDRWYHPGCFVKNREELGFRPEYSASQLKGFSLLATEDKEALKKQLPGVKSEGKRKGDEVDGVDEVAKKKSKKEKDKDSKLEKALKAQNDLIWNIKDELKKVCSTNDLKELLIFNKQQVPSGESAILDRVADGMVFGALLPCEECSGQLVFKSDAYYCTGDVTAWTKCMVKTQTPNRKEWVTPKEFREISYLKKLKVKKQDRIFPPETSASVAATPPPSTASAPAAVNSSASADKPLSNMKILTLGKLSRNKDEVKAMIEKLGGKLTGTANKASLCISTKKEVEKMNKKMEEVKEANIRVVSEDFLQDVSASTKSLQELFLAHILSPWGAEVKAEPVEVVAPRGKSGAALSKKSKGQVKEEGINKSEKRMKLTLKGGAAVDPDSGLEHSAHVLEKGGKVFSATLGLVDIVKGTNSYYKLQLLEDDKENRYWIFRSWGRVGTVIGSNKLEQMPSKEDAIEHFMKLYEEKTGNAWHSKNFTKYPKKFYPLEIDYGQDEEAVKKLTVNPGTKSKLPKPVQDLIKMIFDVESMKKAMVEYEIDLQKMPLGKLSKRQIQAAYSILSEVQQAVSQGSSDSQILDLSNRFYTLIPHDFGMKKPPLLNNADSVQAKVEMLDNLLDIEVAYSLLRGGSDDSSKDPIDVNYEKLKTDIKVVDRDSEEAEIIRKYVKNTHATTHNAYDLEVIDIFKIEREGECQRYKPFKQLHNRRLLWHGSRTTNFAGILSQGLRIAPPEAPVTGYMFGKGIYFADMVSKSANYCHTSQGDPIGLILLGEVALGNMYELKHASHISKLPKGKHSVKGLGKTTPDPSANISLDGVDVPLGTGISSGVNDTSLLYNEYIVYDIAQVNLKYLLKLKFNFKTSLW

Compared with `O=c1[nH]cc(-c2ccc(CNCc3ccccc3)o2)c2c1CCCC2` [Example 79, 4-[5-(benzylaminomethyl)furan-2-yl]-5,6,7,8-tetrahydro-2H-isoquinolin-1-one], `O=c1[nH]cc(-c2ccc(CNCN3CCC(N4CCCC4)CC3)o2)c2c1CCCC2` [Example 64, 4-(5-{[(4-pyrrolidin-1-ylpiperidin-1-ylmethyl)amino]methyl}furan-2-yl)-5,6,7,8-tetrahydro-2H-isoquinolin-1-one] is 2.3-fold higher in IC50: 0.15 µM for the first, 0.34 µM for the second. The first is the more potent here.

Going from “4-[5-({[4-(4-fluorophenyl)-piperazin-1-yl]-5,6,7,8-tetrahydro-2H-isoquinolin-1-one [Example 71]” to `Cc1cc(CNC(=O)c2cncc(-c3c[nH]c(=O)c4c3CCCC4)c2)no1` [Example 34, N-(5-methylisoxazol-3-ylmethyl)-5-(1-oxo-1,2,5,6,7,8-hexahydroisoquinolin-4-yl)nicotinamide], the IC50 rises from 1.24 µM to 3.48 µM (2.8-fold). The first is the more potent here.

First: O=c1[nH]cc(Nc2nc(-c3ccncc3)cs2)c2c1CCCC2 [Example 3, 4-(4-pyridin-4-ylthiazol-2-ylamino)-5,6,7,8-tetrahydro-2H-isoquinolin-1-one]
Second: COc1ccc(C(=O)NCc2ccc(-c3c[nH]c(=O)c4c3CCCC4)o2)cc1 [Example 83, 4-methoxy-N-[5-(1-oxo-1,2,5,6,7,8-hexahydroisoquinolin-4-yl)furan-2-ylmethyl]benzamide]
The IC50 of the first is 7.9-fold higher: 9.83 µM for the first, 1.25 µM for the second.

Going from `O=c1[nH]cc(-c2ccc(CNC3Cc4ccccc4C3)o2)c2c1CCCC2` [Example 70, 4-[5-(indan-2-ylaminomethyl)-furan-2-yl]-5,6,7,8-tetrahydro-2H-isoquinolin-1-one] to `CC(=O)Nc1cccc(Nc2c(C)[nH]c(=O)c3c2CCCC3)c1` [Example 17, N-[3-(3-methyl-1-oxo-1,2,5,6,7,8-hexahydroisoquinolin-4-ylamino)-phenyl]acetamide], the IC50 falls from 0.31 µM to 0.14 µM (2.2-fold).

First: O=c1[nH]cc(-c2ccc(CNCc3nc4ccccc4[nH]3)o2)c2c1CCCC2 [Example 68, 4-(5-{[(1H-benzimidazol-2-ylmethyl)amino]methyl}furan-2-yl)-5,6,7,8-tetrahydro-2H-isoquinolin-1-one]
Second: O=c1[nH]cc(-c2ccc(CN3CCCC3)o2)c2c1CCCC2 [Example 61, 4-(5-pyrrolidin-1-ylmethylfuran-2-yl)-5,6,7,8-tetrahydro-2H-isoquinolin-1-one]
The IC50 of the first is 3.1-fold higher: 0.34 µM for the first, 0.11 µM for the second.

Going from `O=c1[nH]cc(Nc2cccc(O)c2)c2c1CCCC2` [Example 1, 4-(3-hydroxyphenylamino)-5,6,7,8-tetrahydro-2H-isoquinolin-1-one] to `CC(=O)c1cccc(Nc2c[nH]c(=O)c3c2CCCC3)c1` [Example 15, 4-(3-acetylphenylamino)-5,6,7,8-tetrahydro-2H-isoquinolin-1-one], the IC50 falls from 1.31 µM to 0.69 µM (1.9-fold).

`O=c1[nH]cc(-c2ccc(CN3CCCC3c3ccccn3)o2)c2c1CCCC2` (stereo not drawn) [Example 67, 4-[5-(2-pyridin-2-ylpyrrolidin-1-ylmethyl)furan-2-yl]-5,6,7,8-tetrahydro-2H-isoquinolin-1-one] and `O=C(NCc1ccc(-c2c[nH]c(=O)c3c2CCCC3)o1)c1cccnc1` [Example 84, N-[5-(1-oxo-1,2,5,6,7,8-hexahydroisoquinolin-4-yl)furan-2-ylmethyl]nicotinamide] are within 1.5-fold of each other in IC50: 0.72 µM for the first, 0.79 µM for the second.

First: O=C(NCCc1cccnc1)c1cccc(Nc2c[nH]c(=O)c3c2CCCC3)c1 [Example 23, 3-(1-Oxo-1,2,5,6,7,8-hexahydroisoquinolin-4-ylamino)-N-(2-pyridin-3-ylethyl)benzamide]
Second: NS(=O)(=O)c1ccc(CCNC(=O)c2cncc(-c3c[nH]c(=O)c4c3CCCC4)c2)cc1 [Example 44, 5-(1-oxo-1,2,5,6,7,8-hexahydroisoquinolin-4-yl)-N-[2-(4-sulf-amoylphenyl)ethyl]nicotinamide]
The IC50 of the first is 4.1-fold lower: 2.01 µM for the first, 8.27 µM for the second. The first is the more potent here.

`O=C(CNC(=O)c1cncc(-c2c[nH]c(=O)c3c2CCCC3)c1)c1ccccc1` [Example 26, 5-(1-oxo-1,2,5,6,7,8-hexahydroisoquinolin-4-yl)-N-(2-oxo-2-phenylethyl)nicotinamide] and `CN(Cc1ccc(-c2c[nH]c(=O)c3c2CCCC3)o1)Cc1nc2c(s1)CCCC2` [Example 66, 4-(5-{[methyl-(4,5,6,7-tetrahydro-benzothiazol-2-ylmethyl)amino]-methyl}furan-2-yl)-5,6,7,8-tetrahydro-2H-isoquinolin-1-one] are within 1.5-fold of each other in IC50: 1.47 µM for the first, 1.18 µM for the second.

Going from `CCCCNC(=O)c1cccc(Nc2c[nH]c(=O)c3c2CCCC3)c1` [Example 20, N-Butyl-3-(1-oxo-1,2,5,6,7,8-hexahydroisoquinolin-4-ylamino)benzamide] to `Cc1cnc(CNC(=O)c2cncc(-c3c[nH]c(=O)c4c3CCCC4)c2)cn1` [Example 39, N-(5-methylpyrazin-2-ylmethyl)-5-(1-oxo-1,2,5,6,7,8-hexahydroisoquinolin-4-yl)nicotinamide], the IC50 rises from 1.28 µM to 5.89 µM (4.6-fold).

Compared with `Cc1nn(C)c(C)c1CNC(=O)c1cncc(-c2c[nH]c(=O)c3c2CCCC3)c1` [Example 35, 5-(1-oxo-1,2,5,6,7,8-hexahydroisoquinolin-4-yl)-N-(1,3,5-trimethyl-1H-pyrazol-4-ylmethyl)-nicotinamide], `O=c1[nH]cc(-c2ccc(CNS(=O)(=O)c3ccc(Oc4ccccn4)cc3)o2)c2c1CCCC2` [Example 85, N-[5-(1-oxo-1,2,5,6,7,8-hexahydroisoquinolin-4-yl)furan-2-ylmethyl]-4-(pyridin-2-yloxy)benzenesulfonamide] is 4.2-fold lower in IC50: 6.88 µM for the first, 1.63 µM for the second.

Going from `O=C(NCCNc1ncccn1)c1cncc(-c2c[nH]c(=O)c3c2CCCC3)c1` [Example 33, 5-(1-oxo-1,2,5,6,7,8-hexahydroisoquinolin-4-yl)-N-[2-(pyrimidin-2-ylamino)ethyl]nicotinamide] to `CS(=O)(=O)c1ccc(CNC(=O)c2cncc(-c3c[nH]c(=O)c4c3CCCC4)c2)cc1` [Example 42, N-(4-methanesulfonylbenzyl)-5-(1-oxo-1,2,5,6,7,8-hexahydroisoquinolin-4-yl)nicotinamide], the IC50 falls from 3.69 µM to 1.03 µM (3.6-fold). The second is the more potent here.

First: O=C(NCc1ccc(-c2c[nH]c(=O)c3c2CCCC3)o1)C(F)(F)F [Example 80, 2,2,2-trifluoro-N-[5-(1-oxo-1,2,5,6,7,8-hexahydroisoquinolin-4-yl)furan-2-ylmethyl]acetamide]
Second: O=C(c1cccc(Nc2c[nH]c(=O)c3c2CCCC3)c1)N1CCN(CC2CC2)CC1 [Example 22, 4-[3-(4-Cyclopropylmethylpiperazine-1-carbonyl)phenylamino]-5,6,7,8-tetrahydro-2H-isoquinolin-1-one]
The IC50 of the first is 1.6-fold higher: 0.54 µM for the first, 0.33 µM for the second. The second is the more potent here.

Compared with `O=c1[nH]cc(-c2ccc(CN3CCSC3)o2)c2c1CCCC2` [Example 76, 4-(5-thiazolidin-3-ylmethylfuran-2-yl)-5,6,7,8-tetrahydro-2H-isoquinolin-1-one], `O=C(c1cncc(-c2c[nH]c(=O)c3c2CCCC3)c1)N1CCCC1` [Example 25, 4-[5-(pyrrolidine-1-carbonyl)-pyridin-3-yl]-5,6,7,8-tetrahydro-2H-isoquinolin-1-one] is 18-fold higher in IC50: 0.44 µM for the first, 7.7 µM for the second.

`CN(Cc1cccc([N+](=O)[O-])c1)C(=O)c1cncc(-c2c[nH]c(=O)c3c2CCCC3)c1` [Example 32, N-methyl-N-(3-nitrobenzyl)-5-(1-oxo-1,2,5,6,7,8-hexahydroisoquinolin-4-yl)nicotinamide] and `O=c1[nH]cc(-c2ccc(CNCc3cccnc3)o2)c2c1CCCC2` [Example 59, 4-(5-{[(pyridin-3-ylmethyl)amino]-methyl}furan-2-yl)-5,6,7,8-tetrahydro-2H-isoquinolin-1-one] are within 1.5-fold of each other in IC50: 0.77 µM for the first, 0.99 µM for the second.

— patent US7795278B2 (sanofi-aventis Deutschland GmbH, priority 2004, dated 2010)
